Assay results: patent publication US10487084B2, “Toll-like receptor 7 (TLR7) agonists having a heterobiaryl moiety, conjugates thereof, and methods and uses therefor” (BRISTOL-MYERS SQUIBB COMPANY, priority 2017, dated 2019)

How the values were obtained:
[1] = system: interleukin 6 (IL-6); assay: Interleukin 6 induction assay in human whole blood; format: cell-based; conditions: 37° C. for 20 h, AlphaLISA
Experimental: This example describes a method for assaying interleukin 6 induction by compounds disclosed in this specification.
Compounds diluted in DMSO were transferred to individual wells of a Matrix Tech-nologies clear, V-bottom 384-well plate using ECHO acoustic liquid handling technology (25 nL per well). Human whole-blood samples (25 uL) were added to each well using a CyBio FeliX liquid handling instrument. The plate was shaken on a plate shaker for three min before incubating the reaction mixtures at 37° C. for 20 h. Basel RPMI 1640 medium (supplemented with L-glutamine) was then added to each well (25 uL per well) prior to liberating plasma from each sample by centrifugation (450×g, 5 min, ambient temperature). Treated plasma samples (3 uL) were subsequently transferred to individual wells of a white, shallow, 384-well ProxiPlate (Perkin Elmer) using the FeliX liquid handling instrument and their interleukin 6 levels were measured using AlphaLISA technology as described by the manufacturer, PerkinElmer. Data analyses software was used to determine compound EC50 values where the baseline was established using average DMSO values and 100% induction established using reference compound values at the highest concentration tested. EC50's can be determined with software such as Graphpad Prism™.

[2] = target: human TLR7 (Homo sapiens (Human), UniProt Q9NYK1); assay: HEK-Blue TLR7 reporter assay (TLR7 agonism); format: cell-based; conditions: HEK-Blue TLR7 cells, SEAP reporter, 18 h treatment
Chain of human TLR7 (Q9NYK1 27-1049): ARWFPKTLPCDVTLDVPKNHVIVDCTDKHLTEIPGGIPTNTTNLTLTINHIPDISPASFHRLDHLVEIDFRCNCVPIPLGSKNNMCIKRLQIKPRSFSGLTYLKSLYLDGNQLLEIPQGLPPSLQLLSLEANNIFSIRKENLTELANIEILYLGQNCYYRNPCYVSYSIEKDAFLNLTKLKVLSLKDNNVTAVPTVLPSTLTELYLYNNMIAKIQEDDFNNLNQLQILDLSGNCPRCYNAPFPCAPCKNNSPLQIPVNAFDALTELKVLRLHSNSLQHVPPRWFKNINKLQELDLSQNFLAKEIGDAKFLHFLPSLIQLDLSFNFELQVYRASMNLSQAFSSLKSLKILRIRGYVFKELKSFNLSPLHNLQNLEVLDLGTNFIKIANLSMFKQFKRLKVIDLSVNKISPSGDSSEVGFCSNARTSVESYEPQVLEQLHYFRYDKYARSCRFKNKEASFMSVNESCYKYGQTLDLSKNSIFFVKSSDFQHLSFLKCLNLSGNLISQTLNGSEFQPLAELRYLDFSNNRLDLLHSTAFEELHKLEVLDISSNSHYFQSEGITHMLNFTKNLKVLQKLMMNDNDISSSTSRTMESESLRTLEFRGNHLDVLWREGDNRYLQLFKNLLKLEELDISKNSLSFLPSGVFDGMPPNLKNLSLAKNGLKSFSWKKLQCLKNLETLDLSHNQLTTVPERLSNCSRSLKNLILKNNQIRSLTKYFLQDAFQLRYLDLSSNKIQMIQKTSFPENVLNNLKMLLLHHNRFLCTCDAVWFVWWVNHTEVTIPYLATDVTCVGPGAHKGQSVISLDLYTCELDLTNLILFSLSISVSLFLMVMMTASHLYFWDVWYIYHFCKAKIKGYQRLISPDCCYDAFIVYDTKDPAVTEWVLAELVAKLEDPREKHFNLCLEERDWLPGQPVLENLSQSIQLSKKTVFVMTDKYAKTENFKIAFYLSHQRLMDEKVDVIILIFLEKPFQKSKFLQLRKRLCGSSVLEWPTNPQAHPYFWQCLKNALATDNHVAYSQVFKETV
Experimental: This example describes a method for assaying TLR7 agonist activity of the compounds disclosed in this specification.
HEK-Blue™ TLR7 cells were added to each well of a 384-well tissue-culture plate (15,000 cells per well) and incubated 16-18 h at 37° C., 5% CO2. Compounds (100 nl) were dispensed into wells containing the HEK-Blue™ TLR cells and the treated cells were incubated at 37° C., 5% CO2. After 18 h treatment ten microliters of freshly-prepared Quanti-Blue™ reagent (Invivogen) was added to each well, incubated for 30 min (37° C., 5% CO2) and SEAP levels measured using an Envision plate reader (OD=620 nm).

[3] = system: IFN-α; conditions: fold lower potency vs corresponding purine-8-one compound; cited from earlier work

SMILES | EC50 [1] [µM] | EC50 [2] [µM] | potency less than that of the corresponding purine-8-one compound, as measured by IFN-α induction [3] [×]
CCCCOc1nc(N)c2nc(O)n(Cc3ccc(-c4cnn(CCO)c4)cc3)c2n1 [Ia-01] | 0.108 | 0.016 | 
CCCCOc1nc(N)c2nc(O)n(Cc3ccc(-c4cnn(C5CNC5)c4)cc3)c2n1 [Ia-03] | 0.015 | 0.026 | 
CCCCOc1nc(N)c2nc(O)n(Cc3ccc(-c4cnn(CC(=O)NC5CNC5)c4)cc3)c2n1 [Ia-06] | 0.0887 | 0.024 | 
CCCCOc1nc(N)c2c(n1)N(Cc1cccc(CN3CCCC3)c1)CC(=O)N2 [Vesatolimod, vesatolimod] |  |  | 100
CCCCOc1nc(N)c2nc(O)n(Cc3ccc(-c4cnn(CCNC5CCC5)c4)cc3)c2n1 [Ia-04] | 0.0069 | 0.0075 | 

Now from value to compound, other results behind:

EC50 [1] [µM] | EC50 [2] [µM] | SMILES | potency less than that of the corresponding purine-8-one compound, as measured by IFN-α induction [3] [×]
0.00755 |  | CCCCOc1nc(N)c2nc(O)n(Cc3ccc(-c4csc(CN)c4)nc3)c2n1 [Ib-02] | 
 | 0.474 | CCCCOc1nc(N)c2nc(O)n(Cc3ccccc3)c2n1 [Compound B, reference compound] | 
0.106 |  | CCCCOc1nc(N)c2nc(O)n(Cc3ccc(-c4csc(CN)c4)cc3)c2n1 [Ib-01] | 
0.365 | 0.099 | CCCCOc1nc(N)c2nc(O)n(Cc3ccc(-c4nc(CO)co4)cc3)c2n1 [Ic-01] | 
